These results are taken from ChEMBL document CHEMBL1135952, “Successful bridging from a peptide to a non peptide antagonist at the human tachykinin NK-2 receptor” (Bioorg Med Chem Lett, 2002).

pKi: −log10 of the molar value.

By pKi is commonly meant −log10 of the Ki, conventionally taken in molar units. Read a low pKi as a high Ki.

For test [1], the target named is T1, Substance-K receptor (Homo sapiens, UniProt P21452).
T1 sequence (P21452 whole entry): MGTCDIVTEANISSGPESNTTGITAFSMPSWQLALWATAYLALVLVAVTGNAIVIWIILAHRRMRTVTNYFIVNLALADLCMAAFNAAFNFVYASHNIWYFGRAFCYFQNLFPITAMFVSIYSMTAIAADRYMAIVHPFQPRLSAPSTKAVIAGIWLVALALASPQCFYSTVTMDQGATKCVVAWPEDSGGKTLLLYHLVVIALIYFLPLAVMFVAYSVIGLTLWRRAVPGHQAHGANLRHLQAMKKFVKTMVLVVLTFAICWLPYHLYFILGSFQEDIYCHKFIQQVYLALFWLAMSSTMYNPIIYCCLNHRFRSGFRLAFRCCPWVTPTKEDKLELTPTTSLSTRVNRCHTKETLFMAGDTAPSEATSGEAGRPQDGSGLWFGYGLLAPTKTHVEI
Description: Functional affinity was evaluated by measuring the intracellular calcium concentration in CHO cells transfected with the human Tachykinin receptor 2 using Fura-2. The test is classed as cell-based. The note with it: read-out: pA2 (converted).

Test [2] deals with T1, Substance-K receptor. Description: Compound was tested for it's binding affinity against human Tachykinin receptor 2.

Take `CN(CCc1c[nH]c2ccccc12)C(=O)c1ccccc1C(=O)N(CCCN1CCSCC1)CCc1c[nH]c2ccccc12`: on Substance-K receptor [1], the Kb is 10 nM. On Substance-K receptor [2], this compound gave a pKi of 8.00.

For the compound `O=C(c1ccccc1C(=O)N(CCCN1CCSCC1)CCc1c[nH]c2ccccc12)N(CCCN1CCSCC1)CCc1c[nH]c2ccccc12`, the Kb at Substance-K receptor [1] is 3.98 nM. The compound also gave a pKi at Substance-K receptor [2] of 8.40.

As to `CN(C)CCN(C)C(=O)c1nccnc1C(=O)N[C@@H]1CC(=O)N[C@@H](Cc2c[nH]c3ccccc23)C(=O)N[C@@H](Cc2ccccc2)C(=O)N[C@H](Cc2ccccc2)CNC1=O`, the pKi at Substance-K receptor [2] was 8.70.

For the compound `O=C(c1ccccc1C(=O)N(CCCN1CCOCC1)CCc1c[nH]c2ccccc12)N(CCCN1CCOCC1)CCc1c[nH]c2ccccc12`, the pKi on Substance-K receptor [2] was 7.50.

Turning to `O=C(NCCc1c[nH]c2ccccc12)c1nccnc1C(=O)N(CCCN1CCOCC1)CCc1c[nH]c2ccccc12`, on Substance-K receptor [2], the pKi is 6.30.

At Substance-K receptor [2], `O=C(c1nccnc1C(=O)N(CCCN1CCOCC1)CCc1c[nH]c2ccccc12)N(CCCN1CCOCC1)CCc1c[nH]c2ccccc12` gave a pKi of 6.90.
